Columns and labels:
Assay type in all cases: in vivo
[1] = test system: umbrella sedge (Cyperus difformis); assay: Test B flooded paddy test; conditions: for Plant response rating, Flood, Sedge, Umbrella: 250 g ai/ha, flooded paddy test, visual rating on 0 to 100 scale (0 no effect, 100 complete control) after 13 to 15 days; for Plant response rating, Sedge, Umbrella: Flood (flooded paddy test), 13 to 15 days; for Sedge, Umbrella plant response rating: Flood, scale 0 to 100 (0 no effect, 100 complete control)
Summary of the method: (§1)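 Flooded-pot test: water raised to 3 cm above soil when treating, compound put in the water, level unchanged thereafter. Plants were at 2 leaves. Readout after 13 to 15 days, visual, relative to controls; 0 signifies no effect and 100 complete control.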

[2] = test system: ducksalad (Heteranthera limosa); assay: Test B flooded paddy test; conditions: for Plant response rating, Flood, Ducksalad: 250 g ai/ha, flooded paddy test, visual rating on 0 to 100 scale (0 no effect, 100 complete control) after 13 to 15 days; for Plant response rating, Ducksalad: Flood (flooded paddy test), 13 to 15 days; for Ducksalad plant response rating: Flood, scale 0 to 100 (0 no effect, 100 complete control)
Summary of the method: as §1

[3] = test system: barnyardgrass (Echinochloa crus-galli); assay: Test B flooded paddy test; conditions: for Plant response rating, Flood, Barnyardgrass: 250 g ai/ha, flooded paddy test, visual rating on 0 to 100 scale (0 no effect, 100 complete control) after 13 to 15 days; for Plant response rating, Barnyardgrass: Flood (flooded paddy test), 13 to 15 days; for Barnyardgrass plant response rating: Flood, scale 0 to 100 (0 no effect, 100 complete control)
Summary of the method: as §1

rice (Oryza sativa) = assay: Test B flooded paddy test; conditions: for Plant response rating, Flood, Rice: 250 g ai/ha, flooded paddy test, visual rating on 0 to 100 scale (0 no effect, 100 complete control) after 13 to 15 days; for Plant response rating, Rice: Flood (flooded paddy test), 13 to 15 days; for Rice plant response rating: Flood, scale 0 to 100 (0 no effect, 100 complete control)
Summary of the method: as §1

[4] = test system: pigweed (Amaranthus retroflexus); assay: Test A pre-/postemergence plant response
Summary of the method: (§2)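 Injury was scored visually after roughly ten days against untreated controls, 0 = no effect, 100 = complete control. Test chemicals in a surfactant-containing non-phytotoxic solvent were sprayed either onto soil preemergence or onto one- to two-leaf, 2–10 cm plants postemergence.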

[5] = test system: barnyardgrass (Echinochloa crus-galli); assay: Test A pre-/postemergence plant response
Summary of the method: as §2

[6] = test system: giant foxtail (Setaria faberii); assay: Test A pre-/postemergence plant response
Summary of the method: as §2

corn (Zea mays) = assay: Test A pre-/postemergence plant response
Summary of the method: as §2

[7] = test system: nightshade (eastern black nightshade, Solanum ptycanthum); assay: Test B pre-/postemergence plant response; conditions: Preemergence
Summary of the method: (§3)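 Plants treated either at seeding (loam/sand soil) or postemergence at 2 to 18 cm height, using a surfactant-containing non-phytotoxic solvent formulation. Evaluation was visual after 13 to 15 days, 0 to 100 scale relative to controls.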

[8] = test system: galium (catchweed bedstraw, Galium aparine); assay: Test B pre-/postemergence plant response; conditions: Preemergence
Summary of the method: as §3

[9] = test system: sunflower (common oilseed sunflower, Helianthus annuus); assay: Test B pre-/postemergence plant response; conditions: Preemergence
Summary of the method: as §3

[10] = 31 g ai/ha, scale of 0 to 100 where 0 is no effect and 100 is complete control
[11] = 62 g ai/ha, scale of 0 to 100 where 0 is no effect and 100 is complete control
[12] = 125 g ai/ha, scale 0 to 100, 0 is no effect, 100 is complete control
[13] = Postemergence, 125 g ai/ha, visual injury, 0 to 100 scale (0 no effect, 100 complete control), approx. ten days
[14] = Postemergence, 500 g ai/ha, 0 to 100 scale, 0 = no effect, 100 = complete control, approx. ten days
[15] = Preemergence, 125 g ai/ha, 0 to 100 scale, 0 = no effect, 100 = complete control
[16] = Preemergence, 500 g ai/ha, visual injury, 0 to 100 scale (0 no effect, 100 complete control), approx. ten days
[17] = 31 g ai/ha, scale 0 to 100 (0 no effect, 100 complete control)
[18] = 62 g ai/ha, scale 0 to 100, 0 no effect, 100 complete control
[19] = 125 g ai/ha, scale 0 to 100, 0 no effect, 100 complete control

Cc1cccc(-n2c(-c3ccccc3)ncc(C(=O)C3=C(O)CCCC3=O)c2=O)c1F [Compound 58]
Plant response rating, Flood, Sedge, Umbrella [1]: 0
Plant response rating, Sedge, Umbrella [1, 10]: 0
Plant response rating, Sedge, Umbrella [1, 11]: 0
Plant response rating, Sedge, Umbrella [1, 12]: 0
Plant response rating, Flood, Ducksalad [2]: 0
Plant response rating, Ducksalad [2, 10]: 0
Plant response rating, Ducksalad [2, 11]: 0
Plant response rating, Ducksalad [2, 12]: 0
Plant response rating, Flood, Barnyardgrass [3]: 0
Plant response rating, Barnyardgrass [3, 10]: 0
Plant response rating, Barnyardgrass [3, 11]: 0
Plant response rating, Barnyardgrass [3, 12]: 0
Plant response rating, Flood, Rice (rice (Oryza sativa)): 0
Plant response rating, Rice (rice (Oryza sativa); [10]): 0
Plant response rating, Rice (rice (Oryza sativa); [11]): 0
Plant response rating, Rice (rice (Oryza sativa); [12]): 0
Pigweed plant response rating [4, 13]: 100
Plant response rating, Pigweed [4, 14]: 100
Plant response rating, Pigweed [4, 15]: 70
Plant response rating, Pigweed [4, 16]: 100
Barnyardgrass plant response rating [5, 13]: 50
Plant response rating, Barnyardgrass [5, 14]: 90
Plant response rating, Barnyardgrass [5, 15]: 30
Plant response rating, Barnyardgrass [5, 16]: 90
Foxtail, Giant plant response rating [6, 13]: 70
Plant response rating, Foxtail, Giant [6, 14]: 90
Plant response rating, Foxtail, Giant [6, 15]: 50
Plant response rating, Foxtail, Giant [6, 16]: 80
Corn plant response rating (corn (Zea mays); [13]): 0
Plant response rating, Corn (corn (Zea mays); [14]): 20
Plant response rating, Corn (corn (Zea mays); [15]): 0
Plant response rating, Corn (corn (Zea mays); [16]): 0
Plant response rating, Nightshade [7, 17]: 90
Plant response rating, Nightshade [7, 18]: 98
Plant response rating, Nightshade [7, 19]: 98
Plant response rating, Galium ([8]; 250 g ai/ha, 0 to 100 scale): 80
Plant response rating, Galium [8, 17]: 0
Plant response rating, Galium [8, 18]: 0
Plant response rating, Galium [8, 19]: 30
Plant response rating, Sunflower [9, 17]: 0
Plant response rating, Sunflower [9, 18]: 55
Plant response rating, Sunflower [9, 19]: 65

CCCCc1ncc(C(=O)C2=C(O)CCCC2=O)c(=O)n1-c1ccccc1C [Compound 62]
Plant response rating, Flood, Sedge, Umbrella [1]: 0
Plant response rating, Sedge, Umbrella [1, 10]: 0
Plant response rating, Sedge, Umbrella [1, 11]: 0
Plant response rating, Sedge, Umbrella [1, 12]: 0
Plant response rating, Flood, Ducksalad [2]: 30
Plant response rating, Ducksalad [2, 10]: 0
Plant response rating, Ducksalad [2, 11]: 0
Plant response rating, Ducksalad [2, 12]: 0
Plant response rating, Flood, Barnyardgrass [3]: 0
Plant response rating, Barnyardgrass [3, 10]: 0
Plant response rating, Barnyardgrass [3, 11]: 0
Plant response rating, Barnyardgrass [3, 12]: 0
Plant response rating, Flood, Rice (rice (Oryza sativa)): 0
Plant response rating, Rice (rice (Oryza sativa); [10]): 0
Plant response rating, Rice (rice (Oryza sativa); [11]): 0
Plant response rating, Rice (rice (Oryza sativa); [12]): 0
Pigweed plant response rating [4, 13]: 90
Plant response rating, Pigweed [4, 14]: 100
Plant response rating, Pigweed [4, 15]: 80
Plant response rating, Pigweed [4, 16]: 100
Barnyardgrass plant response rating [5, 13]: 80
Plant response rating, Barnyardgrass [5, 14]: 90
Plant response rating, Barnyardgrass [5, 15]: 10
Plant response rating, Barnyardgrass [5, 16]: 90
Foxtail, Giant plant response rating [6, 13]: 70
Plant response rating, Foxtail, Giant [6, 14]: 90
Plant response rating, Foxtail, Giant [6, 15]: 60
Plant response rating, Foxtail, Giant [6, 16]: 70
Corn plant response rating (corn (Zea mays); [13]): 30
Plant response rating, Corn (corn (Zea mays); [14]): 70
Plant response rating, Corn (corn (Zea mays); [15]): 0
Plant response rating, Corn (corn (Zea mays); [16]): 20
Plant response rating, Nightshade [7, 17]: 10
Plant response rating, Nightshade [7, 18]: 95
Plant response rating, Nightshade [7, 19]: 98
Plant response rating, Galium ([8]; 250 g ai/ha, 0 to 100 scale): 0
Plant response rating, Galium [8, 17]: 0
Plant response rating, Galium [8, 18]: 0
Plant response rating, Galium [8, 19]: 0
Plant response rating, Sunflower [9, 17]: 0
Plant response rating, Sunflower [9, 18]: 10
Plant response rating, Sunflower [9, 19]: 10

O=C1CCCC(O)=C1C(=O)c1cnc(-c2cccs2)n(-c2ccccc2)c1=O [Compound 66]
Plant response rating, Flood, Sedge, Umbrella [1]: 50
Plant response rating, Sedge, Umbrella [1, 11]: 0
Plant response rating, Sedge, Umbrella [1, 12]: 30
Sedge, Umbrella plant response rating ([1]; 31 g ai/ha): 0
Plant response rating, Flood, Ducksalad [2]: 20
Plant response rating, Ducksalad [2, 11]: 0
Plant response rating, Ducksalad [2, 12]: 0
Ducksalad plant response rating ([2]; 31 g ai/ha): 0
Plant response rating, Flood, Barnyardgrass [3]: 45
Plant response rating, Barnyardgrass [3, 11]: 0
Plant response rating, Barnyardgrass [3, 12]: 0
Barnyardgrass plant response rating ([3]; 31 g ai/ha): 0
Plant response rating, Flood, Rice (rice (Oryza sativa)): 20
Plant response rating, Rice (rice (Oryza sativa); [11]): 0
Plant response rating, Rice (rice (Oryza sativa); [12]): 0
Rice plant response rating (rice (Oryza sativa); 31 g ai/ha): 0
Pigweed plant response rating [4, 13]: 100
Plant response rating, Pigweed [4, 14]: 100
Plant response rating, Pigweed [4, 15]: 90
Plant response rating, Pigweed [4, 16]: 100
Barnyardgrass plant response rating [5, 13]: 80
Plant response rating, Barnyardgrass [5, 14]: 90
Plant response rating, Barnyardgrass [5, 15]: 20
Plant response rating, Barnyardgrass [5, 16]: 70
Foxtail, Giant plant response rating [6, 13]: 70
Plant response rating, Foxtail, Giant [6, 14]: 80
Plant response rating, Foxtail, Giant [6, 16]: 80
Plant response rating, Corn (corn (Zea mays); [14]): 60
Plant response rating, Corn (corn (Zea mays); [15]): 0
Plant response rating, Corn (corn (Zea mays); [16]): 0
Plant response rating, Nightshade [7, 17]: 80
Plant response rating, Nightshade [7, 18]: 95
Plant response rating, Nightshade [7, 19]: 98
Plant response rating, Galium ([8]; 250 g ai/ha, 0 to 100 scale): 0
Plant response rating, Galium [8, 17]: 0
Plant response rating, Galium [8, 18]: 0
Plant response rating, Galium [8, 19]: 0
Plant response rating, Sunflower [9, 17]: 0
Plant response rating, Sunflower [9, 18]: 0
Plant response rating, Sunflower [9, 19]: 0

CC(C)Cc1ncc(C(=O)C2=C(O)CCCC2=O)c(=O)n1-c1ccccc1 [Compound 68]
Plant response rating, Flood, Sedge, Umbrella [1]: 0
Plant response rating, Sedge, Umbrella [1, 11]: 0
Plant response rating, Sedge, Umbrella [1, 12]: 0
Sedge, Umbrella plant response rating ([1]; 31 g ai/ha): 0
Plant response rating, Flood, Ducksalad [2]: 40
Plant response rating, Ducksalad [2, 11]: 0
Plant response rating, Ducksalad [2, 12]: 30
Ducksalad plant response rating ([2]; 31 g ai/ha): 0
Plant response rating, Flood, Barnyardgrass [3]: 20
Plant response rating, Barnyardgrass [3, 11]: 0
Plant response rating, Barnyardgrass [3, 12]: 0
Barnyardgrass plant response rating ([3]; 31 g ai/ha): 0
Plant response rating, Flood, Rice (rice (Oryza sativa)): 30
Plant response rating, Rice (rice (Oryza sativa); [11]): 15
Plant response rating, Rice (rice (Oryza sativa); [12]): 20
Rice plant response rating (rice (Oryza sativa); 31 g ai/ha): 0
Pigweed plant response rating [4, 13]: 100
Plant response rating, Pigweed [4, 14]: 100
Plant response rating, Pigweed [4, 15]: 90
Plant response rating, Pigweed [4, 16]: 100
Barnyardgrass plant response rating [5, 13]: 80
Plant response rating, Barnyardgrass [5, 14]: 90
Plant response rating, Barnyardgrass [5, 15]: 0
Plant response rating, Barnyardgrass [5, 16]: 50
Foxtail, Giant plant response rating [6, 13]: 50
Plant response rating, Foxtail, Giant [6, 14]: 70
Plant response rating, Foxtail, Giant [6, 16]: 60
Corn plant response rating (corn (Zea mays); [13]): 0
Plant response rating, Corn (corn (Zea mays); [14]): 10
Plant response rating, Corn (corn (Zea mays); [15]): 0
Plant response rating, Corn (corn (Zea mays); [16]): 0
Plant response rating, Nightshade [7, 17]: 98
Plant response rating, Nightshade [7, 18]: 98
Plant response rating, Nightshade [7, 19]: 100
Plant response rating, Galium ([8]; 250 g ai/ha, 0 to 100 scale): 85
Plant response rating, Galium [8, 17]: 0
Plant response rating, Galium [8, 18]: 70
Plant response rating, Galium [8, 19]: 70
Plant response rating, Sunflower [9, 17]: 0
Plant response rating, Sunflower [9, 18]: 60
Plant response rating, Sunflower [9, 19]: 75
